How the values were obtained:
[1] = tested on: Methemoglobin; assay: Methemoglobinemia in the rat; type: in vivo; conditions: for Methemoglobin (%): 50 mg/kg, sc, 1 hr
Description: Hydroxylamines are efficacious aldehyde sequestering agents but also may induce methemaglobinemia. Methemoglobinemia is the condition caused by the oxidation of hemoglobin into methemoglobin or a deficiency in the ability of the body to reduce methemoglobin to hemoglobin.
Table 2 sets forth a comparison of the percentage of hemoglobin that is in the form of methemoglobin under control conditions, in the presence of aldehyde sequestering agent, N-enzylhydroxylamine (NBHA) and the hydroxamic acid, AK-10.

[2] = tested on: rat retinal cell line, E1A-NR.3; conditions: co-treatments and delayed addition; reference (1); cited from earlier work
[3] = tested on: Male Sprague Dawley rats; assay: Trimethyltin (TMT) model, KCl-evoked glutamate release from hippocampal slices; type: in vivo, rat; conditions: AK-10 25 mg/kg, sc daily for 17 days, starting 24 hours after TMT 8 mg/kg, FIG. 3
Experimental: Male Sprague Dawley rats (200 g; Harlan) were administered […], sc trimethyltin (TMT) and housed individually as a result of the aggressive behavior induced by the neurotoxicant. The day following the TMT treatment, rats were started on a once daily dosing for 17 days with vehicle or AK-10 (25 mg/kg, sc) in PBS. Rats were decapitated on day 19 and the hippocampi isolated and placed in chilled Hanks Balanced Salt Solution containing 20 mM HEPES (HBSS-HEPES, 4° C.) for release experiments.
Chilled tissues were cut into 300 μm slices. A single slice was incubated in 2 ml of HBSS-HEPES in 12-well culture plates at 37° C. for 30 min. The media was discarded and the slice incubated for 2-10 min periods, each with fresh media. Next, the slices were incubated for 5 min after which the media was isolated for amino acid analyses (Pre-sample), followed by a 5 min incubation in which 50 mM KCl was added to evoke neurotransmitter release from the slices (KCl sample). Next, a final 5 min incubation in HBSS-HEPES was collected (Post sample). […]
For the GC-MS analysis of glutamate, an Agilent bench-top GC-MSD (HP6890/MSD5973) system was autotuned (41, 267 and 599) under PCI conditions with methane as the reagent gas. […] The [MH]+ ions that were monitored were 332 and 338 for endogenous GABA and its internal standard, and 490 and 495 for endogenous glutamate and its internal standard. […]

[4] = tested on: rat retinal cell line, E1A-NR.3; assay: 3-aminopropanal neurotoxicity assay, LDH release, retinal cell cultures; type: cell-based; conditions: for % Neuroprotection (600 μM): compound 600 μM, 24-hour incubation with 400 μM 3-aminopropanal in retinal ganglion cells
Experimental: The rat retinal cell line, E1A-NR.3, was grown in DMEM, containing 10% FBS, in 75 cm2 flasks. […] Media was collected and assayed for LDH using the Roche assay kit. Rabbit muscle LDH was used for the standard curve. Drug treatments of aldehyde sequestering agents were as co-treatments or delayed administration of about 0.5 to about 3 hours. All drugs were dissolved in PBS.

Structure (SMILES)	protection of retinal cells from 3-aminopropanal toxicity [2]	% Neuroprotection (600 μM) [4]	further results
ONCc1ccccc1 [NBHA, N-benzylhydroxylamine, reference compound]	protected retinal cells	–	Methemoglobin (%) [1]: 22.6 ± 3.1%
O=C1O[C@H]([C@@H](O)CO)C(O)=C1O [ascorbic acid, reference compound]	–	–	protection in the rat trimethyltin model of CA3 glutamatergic cell death (KCl-evoked glutamate release as index of CA3 neuronal loss) [3]: not
CCC(C)C(N)C(=O)NO (centres unmarked) [AK-29, 2-amino-N-hydroxy-3-methylpentamide]	–	4%	–
CCC(N)C(=O)NO (centres unmarked) [AK-28, 2-amino-N-hydroxybutanamide]	–	39%	–
CC(=O)NC(CC(C)C)C(=O)NO (centres unmarked) [AK-12, 2-acetoamido-N-hydroxy-4-methylpentamide]	–	10%	melting point: 47 to 49 °C
CC(N)C(=O)NO (centres unmarked) [AK-27, 2-amino-N-hydroxypropanamide]	–	6%	–
CC(C)(C)NO [t-butylhydroxylamine]	protected retinal cells	–	–
CCCC(N)C(=O)NO (centres unmarked) [AK-25, 2-amino-N-hydroxypentamide]	–	28%	–
CC(S)C(=O)NCC(=O)O (centres unmarked) [N-(2-mercaptopropionyl)-glycine]	active	–	–
CC(C)C(N)CC(=O)NO (centres unmarked) [AK-26, 3-amino-N-hydroxy-4-methylpentamide]	–	58%	–
ONC1CCCCC1 [cyclohexylhydroxylamine]	protected retinal cells	–	–
CC(C)CC(N)C(=O)NO (centres unmarked) [AK-10, 2-amino-N-hydroxy-4-methylpentamide]	–	100%	protection in the rat trimethyltin model of CA3 glutamatergic cell death (KCl-evoked glutamate release as index of CA3 neuronal loss) [3]: prevention of TMT neurotoxicity; Methemoglobin (%) [1]: 2.2 ± 0.3%; methemoglobinemia ([1]; N-benzylhydroxylamine as positive control): lack of methemoglobinemia; delay of treatment after 3-AP still giving reduced 24-hour LDH levels ([4]; 300 μM AK-10, delayed co-treatment 0.5 to 3 hours, 400 μM 3-AP, FIG. 2): at least 3 hours; activity in the model of aldehyde-induced cell death ([4]; Table 1, FIG. 1, FIG. 2): most efficacious analog; 24-hour LDH level versus cells exposed to 3-AP alone ([4]; co-treatment, 150 μM, 300 μM and 600 μM AK-10 with 400 μM 3-AP, FIG. 1): significantly reduce
